ChEMBL document CHEMBL4308875, “Synthesis, antituberculosis studies and biological evaluation of new quinoline derivatives carrying 1,2,4-oxadiazole moiety” (Bioorg Med Chem Lett, 2019)
Converted amounts (≈) assume the structure as drawn.

How the values were obtained:
Format in all cases: functional
Conditions in all cases: 168 h
[1] = tested on: Mycobacterium tuberculosis; assay: Antitubercular activity against isoniazid-resistant Mycobacterium tuberculosis after 7 days by resazurin dye based colorimetric assay
[2] = tested on: Mycobacterium tuberculosis; assay: Antitubercular activity against streptomycin-resistant Mycobacterium tuberculosis after 7 days by resazurin dye based colorimetric assay
[3] = tested on: Mycobacterium tuberculosis; assay: Antitubercular activity against moxifloxacin-resistant Mycobacterium tuberculosis after 7 days by resazurin dye based colorimetric assay
[4] = tested on: Mycobacterium tuberculosis; assay: Antitubercular activity against rifampicin-resistant Mycobacterium tuberculosis after 7 days by resazurin dye based colorimetric assay
[5] = tested on: Mycobacterium tuberculosis; assay: Antitubercular activity against kanamycin-resistant Mycobacterium tuberculosis after 7 days by resazurin dye based colorimetric assay
[6] = tested on: Mycobacterium tuberculosis; assay: Antitubercular activity against d-cycloserine-resistant Mycobacterium tuberculosis after 7 days by resazurin dye based colorimetric assay

Compound | MIC [1] [µg/mL] | MIC [2] [µg/mL] | MIC [3] [µg/mL] | MIC [4] [µg/mL] | MIC [5] [µg/mL] | MIC [6] [µg/mL]
CC(C)c1ccc(-c2nc(CN3CCN(c4ccnc5cc(Cl)ccc45)CC3)no2)cc1 | 4.17 (≈ 9.31 µM) | 28.6 (≈ 63.8 µM) | 4.01 (≈ 8.95 µM) | 3.81 (≈ 8.51 µM) | 3.24 (≈ 7.23 µM) | 3.68 (≈ 8.21 µM)
NNC(=O)c1ccncc1 [ISONIAZID] | > 8 | 1 (≈ 7.29 µM) | 0.49 (≈ 3.57 µM) | 0.49 (≈ 3.57 µM) | 0.49 (≈ 3.57 µM) | 3.78 (≈ 27.6 µM)
CC(=O)NC[C@H]1CN(c2ccc(N3CCOCC3)c(F)c2)C(=O)O1 [LINEZOLID] | 2.33 (≈ 6.91 µM) | 14.1 (≈ 41.7 µM) | 3.65 (≈ 10.8 µM) | 1.68 (≈ 4.98 µM) | 1.91 (≈ 5.66 µM) | 10.3 (≈ 30.7 µM)
COc1c(N2C[C@@H]3CCCN[C@@H]3C2)c(F)cc2c(=O)c(C(=O)O)cn(C3CC3)c12 [MOXIFLOXACIN] | 0.49 (≈ 1.22 µM) | 0.94 (≈ 2.34 µM) | > 16 | 0.42 (≈ 1.05 µM) | 0.21 (≈ 0.523 µM) | 0.46 (≈ 1.15 µM)
CO[C@H]1/C=C/O[C@@]2(C)Oc3c(C)c(O)c4c(O)c(c(/C=N/N5CCN(C)CC5)c(O)c4c3C2=O)NC(=O)/C(C)=C\C=C\[C@H](C)[C@H](O)[C@@H](C)[C@@H](O)[C@@H](C)[C@H](OC(C)=O)[C@@H]1C [RIFAMPIN] | < 0.02 | 0.05 (≈ 0.0608 µM) | 0.23 (≈ 0.279 µM) | > 4 | < 0.02 | < 0.02
